Test results reported in publication PMC10269819, “Mitochondrial ADP/ATP Carrier 1 Is Important for the Growth of Toxoplasma Tachyzoites” (Microbiology Spectrum, 2023).

Legend:
Format in all cases: cell-based
TgAAC1 [1] = molecular target: T1, TgAAC1 (Toxoplasma gondii, UniProt Q9BJ36); experiment: competition with [α-32P]ATP uptake by intact induced E. coli cells; settings: unlabelled competitor 2.5 μM (100-fold excess); 25 nM [α-32P]ATP; 10 min; 50 mM potassium phosphate pH 7.0; 30 °C
T1 construct: full-length cDNA (318 residues) in pET-16b, HA-tagged; expressed in membrane of intact E. coli BL21(DE3)
T1 sequence (Q9BJ36 1-318): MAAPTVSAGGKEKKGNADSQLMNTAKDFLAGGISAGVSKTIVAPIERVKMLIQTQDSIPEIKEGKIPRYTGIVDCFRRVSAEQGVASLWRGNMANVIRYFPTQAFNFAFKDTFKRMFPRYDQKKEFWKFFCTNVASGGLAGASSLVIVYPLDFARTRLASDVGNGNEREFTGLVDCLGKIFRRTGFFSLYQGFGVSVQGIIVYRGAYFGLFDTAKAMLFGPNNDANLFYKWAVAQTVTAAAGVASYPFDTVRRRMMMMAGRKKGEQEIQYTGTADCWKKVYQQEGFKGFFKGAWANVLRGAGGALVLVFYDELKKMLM

TgAAC1 [2] = molecular target: T1, TgAAC1; experiment: as above; settings: unlabelled competitor 2.5 μM (100-fold excess); 25 nM [α-32P]ATP; 10 min; 50 mM potassium phosphate pH 7.0; 30 °C; remark: listed apart in the source
TgAAC1 [3] = molecular target: T1, TgAAC1; experiment: uptake of [α-32P]ATP by intact induced E. coli cells; settings: labelled compound; 25 nM [α-32P]ATP; 50 mM potassium phosphate pH 7.0; 30 °C; uninduced cells as control

| Structure (SMILES) | % reduction of [α-32P]-ATP transport at 2.5 μM (TgAAC1 [1]) | % reduction of [α-32P]-ATP uptake at 2.5 μM (TgAAC1 [2]) | uptake of [α-32P]ATP by intact induced E. coli cells (TgAAC1 [3]) |
| --- | --- | --- | --- |
| Nc1ncnc2c1ncn2[C@@H]1O[C@H](COP(=O)(O)OP(=O)(O)O)[C@@H](O)[C@H]1O [ADP] | ~ approximately 90% | – | – |
| Nc1ncnc2c1ncn2[C@@H]1O[C@H](COP(=O)(O)O)[C@@H](O)[C@H]1O [AMP] | – | 40% | – |
| Nc1ncnc2c1ncn2[C@@H]1O[C@H](COP(=O)(O)OP(=O)(O)OP(=O)(O)O)[C@@H](O)[C@H]1O [ATP] | ~ approximately 90% | – | TgAAC1 could take up more ATP after induction compared to the noninduced group |
| Nc1ccn([C@@H]2O[C@H](COP(=O)(O)OP(=O)(O)OP(=O)(O)O)[C@@H](O)[C@H]2O)c(=O)n1 [CTP] | – | 45% | – |
